In patent publication US20220362396A1, “AMINO-PYRAZINECARBOXAMIDE COMPOUNDS, CONJUGATES, AND USES THEREOF” (Silverback Therapeutics, Inc., priority 2018, published 2022):

Experiments:
[1] = tested on: TGFβ/SMAD Signaling Pathway SBE reporter cell line; experiment: TGFβ reporter assay, in vitro small molecule screening (luciferase); type: cell-based; conditions: TGFβ stimulation, luminescence
In short: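 SBE luciferase reporter cells (~0.5×10^6 cells/mL) preincubated with compound 5-6 h at 37 °C in 0.5% FBS MEM, then stimulated with TGFβ (12 ng/mL stock) for 18 h. Luminescence read after luciferase substrate; EC50 from curve fits.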

[2] = biological target: T1, TGFBR2 (Homo sapiens, UniProt P37173); experiment: TGFBR2 RBC assay (enzyme inhibition assay, Reaction Biology Corp.); type: biochemical
T1 construct: purchased Reaction Biology Corp
Method: Compounds of the disclosure were also assayed by Reaction Biology Corp. using the TGFBR2 RBC assay (enzyme inhibition assay). […] NT refers to not tested.

T1 sequence (P37173 23-567): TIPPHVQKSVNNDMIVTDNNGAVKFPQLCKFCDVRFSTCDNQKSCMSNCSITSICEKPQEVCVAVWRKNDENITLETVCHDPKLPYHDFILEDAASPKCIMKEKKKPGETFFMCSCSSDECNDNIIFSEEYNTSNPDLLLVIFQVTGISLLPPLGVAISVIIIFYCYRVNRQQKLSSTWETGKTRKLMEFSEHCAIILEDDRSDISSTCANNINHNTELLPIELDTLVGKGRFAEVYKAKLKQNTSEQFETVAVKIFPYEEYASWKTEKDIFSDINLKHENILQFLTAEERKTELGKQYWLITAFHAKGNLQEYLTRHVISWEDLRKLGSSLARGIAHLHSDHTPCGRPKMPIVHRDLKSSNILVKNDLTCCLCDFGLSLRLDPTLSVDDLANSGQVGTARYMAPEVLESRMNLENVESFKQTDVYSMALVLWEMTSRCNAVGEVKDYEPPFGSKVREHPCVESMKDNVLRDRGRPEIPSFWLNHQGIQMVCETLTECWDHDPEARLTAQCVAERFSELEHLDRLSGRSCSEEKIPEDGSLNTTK

EC50 [1] | IC50 [2] | SMILES
100 to 1000 nM | < 50 nM | CC(C)(C)OC(=O)N[C@H](Cc1ccc(-c2cnc(N)c(C(=O)Nc3cnccc3N3CCOCC3)n2)cc1)C(=O)O [Compound 196]
> 1000 nM | 100 to 1000 nM | Nc1ncc(-c2ccc(C[C@@H](N)C(=O)O)cc2)nc1C(=O)Nc1cnccc1N1CCOCC1 [Compound 197]
100 to 1000 nM | 50 to 100 nM | Nc1ncc(-c2ccc3c(c2)CCC(=O)N3)nc1C(=O)Nc1cnccc1N1CCOCC1 [Compound 198]
> 1000 nM | < 50 nM | CC(C)(C)OC(=O)N[C@@H](CO)Cc1ccc(-c2cnc(N)c(C(=O)Nc3cnccc3N3CCOCC3)n2)cc1 [Compound 199]
> 1000 nM | < 50 nM | COC(=O)[C@H](Cc1ccc(-c2cnc(N)c(C(=O)Nc3cnccc3N3CCOCC3)n2)cc1)NC(=O)OC(C)(C)C [Compound 200]
100 to 1000 nM | 100 to 1000 nM | Nc1ncc(-c2ccc3c(c2)CCNC3=O)nc1C(=O)Nc1cnccc1N1CCOCC1 [Compound 201]
100 to 1000 nM | < 50 nM | Nc1ncc(-c2ccc(C[C@@H](N)CO)cc2)nc1C(=O)Nc1cnccc1N1CCOCC1 [Compound 202]
> 1000 nM | < 50 nM | COC(=O)[C@@H](N)Cc1ccc(-c2cnc(N)c(C(=O)Nc3cnccc3N3CCOCC3)n2)cc1 [Compound 203]
> 1000 nM | < 50 nM | CC(COc1ccc(-c2cnc(N)c(C(=O)Nc3cnccc3N3CCOCC3)n2)cc1)NC(=O)OC(C)(C)C (stereo not shown) [Compound 204]
100 to 1000 nM | < 50 nM | CC(N)COc1ccc(-c2cnc(N)c(C(=O)Nc3cnccc3N3CCOCC3)n2)cc1 (stereo not shown) [Compound 205]
100 to 1000 nM | < 50 nM | CC(CNC(=O)OC(C)(C)C)Oc1ccc(-c2cnc(N)c(C(=O)Nc3cnccc3N3CCOCC3)n2)cc1 (stereo not shown) [Compound 206]
100 to 1000 nM | < 50 nM | CC(C)(C)OC(=O)N[C@@H](Cc1ccc(-c2cnc(N)c(C(=O)Nc3cnccc3N3CCOCC3)n2)cc1)C(=O)O [Compound 207]
> 1000 nM | < 50 nM | Nc1ncc(-c2ccc(C[C@H](N)C(=O)O)cc2)nc1C(=O)Nc1cnccc1N1CCOCC1 [Compound 208]
100 to 1000 nM | < 50 nM | CC(C)(C)OC(=O)N[C@H](CO)Cc1ccc(-c2cnc(N)c(C(=O)Nc3cnccc3N3CCOCC3)n2)cc1 [Compound 209]
100 to 1000 nM | < 50 nM | Nc1ncc(-c2ccc(C[C@H](N)CO)cc2)nc1C(=O)Nc1cnccc1N1CCOCC1 [Compound 210]
100 to 1000 nM | < 50 nM | CC(C)(C)OC(=O)NC1Cc2ccc(-c3cnc(N)c(C(=O)Nc4cnccc4N4CCOCC4)n3)cc2C1 (stereo not shown) [Compound 212]
50 to 100 nM | < 50 nM | Nc1ncc(-c2ccc3c(c2)CC(N)C3)nc1C(=O)Nc1cnccc1N1CCOCC1 (stereo not shown) [Compound 213]
100 to 1000 nM | < 50 nM | CC1(C)CCNc2ccc(-c3cnc(N)c(C(=O)Nc4cnccc4N4CCOCC4)n3)cc21 [Compound 214]
100 to 1000 nM | < 50 nM | CC(C)(C)OC(=O)NC1CCc2cc(-c3cnc(N)c(C(=O)Nc4cnccc4N4CCOCC4)n3)ccc21 (stereo not shown) [Compound 215]
50 to 100 nM | < 50 nM | CC1CCNc2ccc(-c3cnc(N)c(C(=O)Nc4cnccc4N4CCOCC4)n3)cc21 (stereo not shown) [Compound 216]
100 to 1000 nM | < 50 nM | Nc1ncc(-c2ccc3c(c2)OCCN3)nc1C(=O)Nc1cnccc1N1CCOCC1 [Compound 217]
50 to 100 nM | < 50 nM | CC(C)(C)OC(=O)N1CC(Oc2ccc(-c3cnc(N)c(C(=O)Nc4cnccc4N4CCOCC4)n3)cc2)C1 [Compound 218]

EC50 [1] | IC50 [2] | SMILES
50 to 100 nM | < 50 nM | Nc1ncc(-c2ccc(OC3CNC3)cc2)nc1C(=O)Nc1cnccc1N1CCOCC1 [Compound 219]
100 to 1000 nM | < 50 nM | Nc1ncc(-c2ccc3c(c2)CCC3N)nc1C(=O)Nc1cnccc1N1CCOCC1 (stereo not shown) [Compound 220]
< 50 nM | < 50 nM | CC(C)(C)OC(=O)N[C@H]1C[C@H](Oc2ccc(-c3cnc(N)c(C(=O)Nc4cnccc4N4CCOCC4)n3)cc2)C1 [Compound 221]
100 to 1000 nM | < 50 nM | Nc1ncc(-c2ccc(O[C@H]3C[C@H](N)C3)cc2)nc1C(=O)Nc1cnccc1N1CCOCC1 [Compound 222]
100 to 1000 nM | < 50 nM | CC(C)(C)OC(=O)N[C@H]1C[C@@H](Oc2ccc(-c3cnc(N)c(C(=O)Nc4cnccc4N4CCOCC4)n3)cc2)C1 [Compound 223]
> 1000 nM | < 50 nM | Nc1ncc(-c2ccc(O[C@H]3C[C@@H](N)C3)cc2)nc1C(=O)Nc1cnccc1N1CCOCC1 [Compound 224]
100 to 1000 nM | 100 to 1000 nM | CC1c2ccc(-c3cnc(N)c(C(=O)Nc4cnccc4N4CCOCC4)n3)cc2CCN1C(=O)OC(C)(C)C (stereo not shown) [Compound 225]
100 to 1000 nM | < 50 nM | CCOC(=O)[C@@H]1CN(Cc2ccccc2)C[C@H]1c1ccc(-c2cnc(N)c(C(=O)Nc3cnccc3N3CCOCC3)n2)cc1 [Compound 226]
50 to 100 nM | < 50 nM | CCOC(=O)[C@@H]1CNC[C@H]1c1ccc(-c2cnc(N)c(C(=O)Nc3cnccc3N3CCOCC3)n2)cc1 [Compound 227]
100 to 1000 nM | 50 to 100 nM | CC(C)(C)OC(=O)N1CCCc2cc(-c3cnc(N)c(C(=O)Nc4cnccc4N4CCOCC4)n3)ccc2C1 [Compound 228]
100 to 1000 nM | 50 to 100 nM | Nc1ncc(-c2ccc3c(c2)CCCNC3)nc1C(=O)Nc1cnccc1N1CCOCC1 [Compound 229]
50 to 100 nM | < 50 nM | CC(C)(C)OC(=O)N1CCc2cc(-c3cnc(N)c(C(=O)Nc4cnccc4N4CCOCC4)n3)ccc2C1CN (stereo not shown) [Compound 230]
> 1000 nM | < 50 nM | Nc1ncc(-c2ccc3c(c2)CCNC3CN2C(=O)c3ccccc3C2=O)nc1C(=O)Nc1cnccc1N1CCOCC1 (stereo not shown) [Compound 232]
100 to 1000 nM | < 50 nM | CC(C)(C)OC(=O)NCC1CCc2cc(-c3cnc(N)c(C(=O)Nc4cnccc4N4CCOCC4)n3)ccc2O1 (stereo not shown) [Compound 233]
100 to 1000 nM | < 50 nM | CC1NCCc2cc(-c3cnc(N)c(C(=O)Nc4cnccc4N4CCOCC4)n3)ccc21 (stereo not shown) [Compound 234]
100 to 1000 nM | < 50 nM | NCC1NCCc2cc(-c3cnc(N)c(C(=O)Nc4cnccc4N4CCOCC4)n3)ccc21 (stereo not shown) [Compound 235]
> 1000 nM | < 50 nM | Nc1ncc(-c2ccc(CCNC(=O)OCc3ccccc3)cc2)nc1C(=O)Nc1cnc(F)cc1N1CCOCC1 [Compound 236]
50 to 100 nM | < 50 nM | NCC1CCc2cc(-c3cnc(N)c(C(=O)Nc4cnccc4N4CCOCC4)n3)ccc2O1 (stereo not shown) [Compound 237]
100 to 1000 nM | 50 to 100 nM | CC(C)(C)OC(=O)NC1CNc2ccc(-c3cnc(N)c(C(=O)Nc4cnccc4N4CCOCC4)n3)cc2C1 (stereo not shown) [Compound 238]
100 to 1000 nM | 50 to 100 nM | Nc1ncc(-c2ccc3c(c2)CC(N)CN3)nc1C(=O)Nc1cnccc1N1CCOCC1 (stereo not shown) [Compound 239]
> 1000 nM | 50 to 100 nM | COC(=O)c1cc(-c2cnc(N)c(C(=O)Nc3cnccc3N3CCOCC3)n2)ccc1OCCCN1C(=O)c2ccccc2C1=O [Compound 240]
> 1000 nM | 100 to 1000 nM | COC(=O)c1cc(-c2cnc(N)c(C(=O)Nc3cnccc3N3CCOCC3)n2)ccc1OCCCNC(=O)OC(C)(C)C [Compound 241]
